Measurements reported in PubChem BioAssay (NCI).
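Growth conditions: 96-well plates. Treatment: test compound, 48 hours, 5 concentrations. Analysis: linear interpolation between bracketing concentrations; unreached endpoints set to highest concentration. GI50 is the concentration that inhibits growth by half. TGI: total growth inhibition.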

Experiments:
Assay in all cases: growth of human tumour cells (NCI), 48 h
786-0 renal = system: 786-0 renal
A498 renal = system: A498 renal
A549 NSCLC = system: A549 NSCLC
ACHN renal = system: ACHN renal
BT-549 breast = system: BT-549 breast
CAKI-1 renal = system: CAKI-1 renal
CCRF-CEM leukemia = system: CCRF-CEM leukemia
COLO 205 colon = system: COLO 205 colon
DU-145 prostate = system: DU-145 prostate
EKVX NSCLC = system: EKVX NSCLC
HCC-2998 colon = system: HCC-2998 colon
HCT-116 colon = system: HCT-116 colon
HCT-15 colon = system: HCT-15 colon
HOP-62 NSCLC = system: HOP-62 NSCLC
HOP-92 NSCLC = system: HOP-92 NSCLC
HS 578T breast = system: HS 578T breast
HT29 colon = system: HT29 colon
IGROV1 ovarian = system: IGROV1 ovarian
K-562 leukemia = system: K-562 leukemia
KM12 colon = system: KM12 colon
LOX IMVI melanoma = system: LOX IMVI melanoma
M14 melanoma = system: M14 melanoma
MALME-3M melanoma = system: MALME-3M melanoma
MCF7 breast = system: MCF7 breast
MDA-MB-231 breast = system: MDA-MB-231 breast
MDA-MB-435 = system: MDA-MB-435
MOLT-4 leukemia = system: MOLT-4 leukemia
NCI-H226 lung = system: NCI-H226 lung
NCI-H23 lung = system: NCI-H23 lung
NCI-H460 lung = system: NCI-H460 lung
NCI-H522 lung = system: NCI-H522 lung
NCI/ADR-RES ovarian = system: NCI/ADR-RES ovarian
OVCAR-3 ovarian = system: OVCAR-3 ovarian
OVCAR-4 ovarian = system: OVCAR-4 ovarian
OVCAR-5 ovarian = system: OVCAR-5 ovarian
OVCAR-8 ovarian = system: OVCAR-8 ovarian
PC-3 prostate = system: PC-3 prostate
RPMI-8226 leukemia = system: RPMI-8226 leukemia
RXF 393 renal = system: RXF 393 renal
SF-268 CNS = system: SF-268 CNS
SF-539 CNS = system: SF-539 CNS
SK-MEL-2 melanoma = system: SK-MEL-2 melanoma
SK-MEL-28 melanoma = system: SK-MEL-28 melanoma
SK-MEL-5 melanoma = system: SK-MEL-5 melanoma
SK-OV-3 ovarian = system: SK-OV-3 ovarian
SN12C renal = system: SN12C renal
SNB-19 CNS = system: SNB-19 CNS
SNB-75 CNS = system: SNB-75 CNS
SR leukemia = system: SR leukemia
SW-620 colon = system: SW-620 colon
T-47D breast = system: T-47D breast
TK-10 renal = system: TK-10 renal
U251 CNS = system: U251 CNS
UACC-257 melanoma = system: UACC-257 melanoma
UACC-62 melanoma = system: UACC-62 melanoma
UO-31 renal = system: UO-31 renal

COc1ccn2c(C(C)=O)cc(C(=O)c3ccc4c(c3)Sc3ccccc3N4)c2c1
GI50 (786-0 renal): 145 nM | TGI (786-0 renal): 55100 nM | GI50 (A498 renal): 64 nM | TGI (A498 renal): 251 nM | GI50 (A549 NSCLC): 122 nM | TGI (A549 NSCLC): > 100000 nM | GI50 (ACHN renal): 145 nM | TGI (ACHN renal): > 100000 nM | GI50 (BT-549 breast): 134 nM | TGI (BT-549 breast): > 100000 nM | GI50 (CAKI-1 renal): 52.7 nM | TGI (CAKI-1 renal): > 100000 nM | GI50 (CCRF-CEM leukemia): 135 nM | TGI (CCRF-CEM leukemia): > 100000 nM | GI50 (COLO 205 colon): 72.4 nM | TGI (COLO 205 colon): 183 nM | GI50 (DU-145 prostate): 122 nM | TGI (DU-145 prostate): > 100000 nM | GI50 (EKVX NSCLC): 183 nM | TGI (EKVX NSCLC): > 100000 nM | GI50 (HCC-2998 colon): 155 nM | TGI (HCC-2998 colon): > 47800 nM | GI50 (HCT-116 colon): 67.4 nM | TGI (HCT-116 colon): 4930 nM | GI50 (HCT-15 colon): 98.2 nM | GI50 (HOP-62 NSCLC): 136 nM | TGI (HOP-62 NSCLC): > 100000 nM | TGI (HOP-92 NSCLC): > 100000 nM | GI50 (HS 578T breast): 182 nM | TGI (HS 578T breast): > 100000 nM | GI50 (HT29 colon): 91.8 nM | TGI (HT29 colon): 351 nM | GI50 (IGROV1 ovarian): 164 nM | TGI (IGROV1 ovarian): > 100000 nM | GI50 (K-562 leukemia): 64.3 nM | TGI (K-562 leukemia): > 100000 nM | GI50 (KM12 colon): 87.4 nM | TGI (KM12 colon): > 27300 nM | GI50 (LOX IMVI melanoma): 150 nM | TGI (LOX IMVI melanoma): > 100000 nM | GI50 (M14 melanoma): 85.3 nM | TGI (M14 melanoma): > 100000 nM | GI50 (MALME-3M melanoma): > 27800 nM | TGI (MALME-3M melanoma): > 100000 nM | GI50 (MCF7 breast): 89.3 nM | TGI (MCF7 breast): > 100000 nM | GI50 (MDA-MB-231 breast): 155 nM | TGI (MDA-MB-231 breast): 10600 nM | GI50 (MDA-MB-435): 19 nM | TGI (MDA-MB-435): 45.4 nM | GI50 (MOLT-4 leukemia): 155 nM | TGI (MOLT-4 leukemia): > 100000 nM | GI50 (NCI-H226 lung): 286 nM | TGI (NCI-H226 lung): > 100000 nM | GI50 (NCI-H23 lung): 136 nM | TGI (NCI-H23 lung): > 100000 nM | GI50 (NCI-H460 lung): 113 nM | TGI (NCI-H460 lung): > 38000 nM | GI50 (NCI-H522 lung): 32.1 nM | TGI (NCI-H522 lung): 248 nM | GI50 (NCI/ADR-RES ovarian): 54.7 nM | GI50 (OVCAR-3 ovarian): 80.1 nM | TGI (OVCAR-3 ovarian): 206 nM | TGI (OVCAR-4 ovarian): > 100000 nM | GI50 (OVCAR-5 ovarian): 229 nM | TGI (OVCAR-5 ovarian): > 100000 nM | GI50 (OVCAR-8 ovarian): 140 nM | TGI (OVCAR-8 ovarian): > 100000 nM | GI50 (PC-3 prostate): 129 nM | TGI (PC-3 prostate): > 100000 nM | GI50 (RPMI-8226 leukemia): 141 nM | TGI (RPMI-8226 leukemia): > 100000 nM | GI50 (RXF 393 renal): 228 nM | TGI (RXF 393 renal): > 100000 nM | GI50 (SF-268 CNS): 141 nM | TGI (SF-268 CNS): > 100000 nM | GI50 (SF-539 CNS): 65.4 nM | TGI (SF-539 CNS): 206 nM | TGI (SK-MEL-2 melanoma): > 100000 nM | GI50 (SK-MEL-28 melanoma): 884 nM | TGI (SK-MEL-28 melanoma): > 100000 nM | GI50 (SK-MEL-5 melanoma): 104 nM | TGI (SK-MEL-5 melanoma): 449 nM | GI50 (SK-OV-3 ovarian): 124 nM | TGI (SK-OV-3 ovarian): > 23500 nM | GI50 (SN12C renal): 330 nM | TGI (SN12C renal): > 100000 nM | GI50 (SNB-19 CNS): 158 nM | TGI (SNB-19 CNS): > 100000 nM | GI50 (SNB-75 CNS): 71.4 nM | TGI (SNB-75 CNS): > 100000 nM | GI50 (SR leukemia): 56.7 nM | TGI (SR leukemia): > 100000 nM | GI50 (SW-620 colon): 148 nM | TGI (SW-620 colon): > 100000 nM | GI50 (T-47D breast): 44700 nM | TGI (T-47D breast): > 100000 nM | GI50 (TK-10 renal): 340 nM | TGI (TK-10 renal): > 100000 nM | GI50 (U251 CNS): 132 nM | TGI (U251 CNS): > 100000 nM | GI50 (UACC-257 melanoma): > 30600 nM | TGI (UACC-257 melanoma): > 100000 nM | GI50 (UACC-62 melanoma): 89.4 nM | TGI (UACC-62 melanoma): > 100000 nM | GI50 (UO-31 renal): 476 nM | TGI (UO-31 renal): > 100000 nM
